# Measured values as given in patent US7045532B2 (Millennium Pharmaceuticals, Inc., priority 1999, dated 2006).
# Experiments:
# [1] = target: T1, ACE-2 (Homo sapiens, UniProt Q9BYF1); test: ACE-2 Competitive Substrate Assay (ACS Assay); assay type: biochemical; conditions: Ki class; compounds tested in 5% DMSO, 12 concentrations; read-out: Human ACE-2 Activity
# T1 construct: a stop codon inserted after the serine immediately preceding the transmembrane domain; made in house; host or cells: CHO K1 cells (transient transfection, purified from conditioned medium)
# [2] = target: T2, ACE (Sigma, A2580) (Sus scrofa, UniProt F1RRW5); test: ACE enzymatic activity assay; assay type: biochemical, porcine; conditions: Ki class; compounds tested in 5% DMSO, 12 concentrations
# T2 construct: ACE from porcine kidney; purchased Sigma A2580; host or cells: porcine kidney
# T2 sequence (F1RRW5 34-1309): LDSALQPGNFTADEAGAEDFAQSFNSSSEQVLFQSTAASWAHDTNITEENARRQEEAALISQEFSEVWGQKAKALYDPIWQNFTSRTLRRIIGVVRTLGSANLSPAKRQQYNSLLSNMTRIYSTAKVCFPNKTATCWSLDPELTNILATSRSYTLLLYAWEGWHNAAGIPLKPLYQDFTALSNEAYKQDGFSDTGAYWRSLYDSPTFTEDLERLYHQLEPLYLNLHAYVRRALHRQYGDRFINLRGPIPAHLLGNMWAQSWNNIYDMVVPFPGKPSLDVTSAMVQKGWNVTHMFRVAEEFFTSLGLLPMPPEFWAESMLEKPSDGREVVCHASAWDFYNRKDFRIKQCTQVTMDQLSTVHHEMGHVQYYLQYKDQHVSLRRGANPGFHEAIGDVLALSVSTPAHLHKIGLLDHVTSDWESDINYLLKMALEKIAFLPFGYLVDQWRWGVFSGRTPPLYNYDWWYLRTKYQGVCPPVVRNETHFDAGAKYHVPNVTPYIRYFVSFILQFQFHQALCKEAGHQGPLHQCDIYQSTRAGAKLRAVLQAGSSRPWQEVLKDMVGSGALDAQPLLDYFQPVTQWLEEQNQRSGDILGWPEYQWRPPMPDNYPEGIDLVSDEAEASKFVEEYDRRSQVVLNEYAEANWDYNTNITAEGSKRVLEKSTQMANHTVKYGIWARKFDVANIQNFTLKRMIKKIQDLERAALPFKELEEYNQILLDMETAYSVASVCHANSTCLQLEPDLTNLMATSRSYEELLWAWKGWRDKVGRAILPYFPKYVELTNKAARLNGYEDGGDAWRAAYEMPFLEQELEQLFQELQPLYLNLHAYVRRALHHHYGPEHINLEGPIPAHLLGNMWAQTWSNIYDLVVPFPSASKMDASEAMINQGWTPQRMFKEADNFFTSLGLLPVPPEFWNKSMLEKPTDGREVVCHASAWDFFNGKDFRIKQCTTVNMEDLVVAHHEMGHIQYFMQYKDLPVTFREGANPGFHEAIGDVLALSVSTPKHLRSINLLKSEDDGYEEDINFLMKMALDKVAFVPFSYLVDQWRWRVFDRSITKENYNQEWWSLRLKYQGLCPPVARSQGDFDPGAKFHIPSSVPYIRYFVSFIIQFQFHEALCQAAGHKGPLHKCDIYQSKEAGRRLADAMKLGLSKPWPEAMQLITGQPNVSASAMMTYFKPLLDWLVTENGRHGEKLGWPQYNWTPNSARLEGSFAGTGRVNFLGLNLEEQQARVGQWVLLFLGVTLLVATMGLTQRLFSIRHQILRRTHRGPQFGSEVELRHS
# Protocol: ACE (Sigma, A2580) enzymatic activity was assayed in microtiter plates using the following protocol. ACE assay buffer was made from 50 mM HEPES (Sigma), 300 mM sodium chloride (Sigma), and 0.01% Brij-35 (Pierce Chemical Co) at pH 7.5.
# Reactions were mixed and incubated at 25° C. Enzymatic cleavage of the substrate is marked by a fluorescence change (excitation 330 nm, emission 415 nm).
# The activity of the test compounds was investigated using the procedure outlined above. The compounds were tested in 5% DMSO. Enzyme activity was measured at 12 compound concentrations. […]. […]
# [3] = target: T3, Carboxypeptidase A (Bos taurus, UniProt P00730); test: Carboxypeptidase A activity assay; assay type: biochemical; conditions: Ki class; compounds tested in 5% DMSO, 12 concentrations
# T3 sequence (P00730 111-419): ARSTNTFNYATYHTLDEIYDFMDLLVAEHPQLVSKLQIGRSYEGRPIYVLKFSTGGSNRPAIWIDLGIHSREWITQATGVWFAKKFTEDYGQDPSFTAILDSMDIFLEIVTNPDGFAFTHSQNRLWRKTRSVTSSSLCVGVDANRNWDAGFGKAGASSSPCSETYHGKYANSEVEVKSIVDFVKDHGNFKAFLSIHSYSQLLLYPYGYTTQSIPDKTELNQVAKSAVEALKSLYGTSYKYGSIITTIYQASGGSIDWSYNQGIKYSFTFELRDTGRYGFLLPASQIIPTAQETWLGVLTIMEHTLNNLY
# Protocol: Carboxypeptidase A activity was measured using a literature assay (Holmquist and Riordan, “Carboxypeptidase A,” Methods of Enzymatic Analysis (1984) p. 44–60). The assay was adapted to a 96 well format by adjusting to a 300 μL assay volume and using ultra-thin bottom plates (Costar/Corning) read at 328 nm. The assay was stopped using EDTA.
# The activity of the test compounds was investigated using the procedure outlined above. The compounds were tested in 5% DMSO. Enzyme activity was measured at 12 compound concentrations. The Ki was calculated by using Ki=Kiapp/(1+[S]/Km).
# To determine whether a test compound is capable of modulating carboxypeptidase A's ability to cleave a substrate the method described in Holmquist and Riordan, Carboxypeptidase A, p44–60, Peptidase and Their Inhibitors in Method of Enzymatic Analysis (1984), may be used.
# The assay may be adapted to a 96 well format by adjusting to a 300 μl assay volume and using ultrathin bottom plates (Costar/Coming) read at 328 nm with a final assay volume of 300 μl. The assay may be stopped using EDTA.
# T1 sequence (Q9BYF1 18-740 limits assumed): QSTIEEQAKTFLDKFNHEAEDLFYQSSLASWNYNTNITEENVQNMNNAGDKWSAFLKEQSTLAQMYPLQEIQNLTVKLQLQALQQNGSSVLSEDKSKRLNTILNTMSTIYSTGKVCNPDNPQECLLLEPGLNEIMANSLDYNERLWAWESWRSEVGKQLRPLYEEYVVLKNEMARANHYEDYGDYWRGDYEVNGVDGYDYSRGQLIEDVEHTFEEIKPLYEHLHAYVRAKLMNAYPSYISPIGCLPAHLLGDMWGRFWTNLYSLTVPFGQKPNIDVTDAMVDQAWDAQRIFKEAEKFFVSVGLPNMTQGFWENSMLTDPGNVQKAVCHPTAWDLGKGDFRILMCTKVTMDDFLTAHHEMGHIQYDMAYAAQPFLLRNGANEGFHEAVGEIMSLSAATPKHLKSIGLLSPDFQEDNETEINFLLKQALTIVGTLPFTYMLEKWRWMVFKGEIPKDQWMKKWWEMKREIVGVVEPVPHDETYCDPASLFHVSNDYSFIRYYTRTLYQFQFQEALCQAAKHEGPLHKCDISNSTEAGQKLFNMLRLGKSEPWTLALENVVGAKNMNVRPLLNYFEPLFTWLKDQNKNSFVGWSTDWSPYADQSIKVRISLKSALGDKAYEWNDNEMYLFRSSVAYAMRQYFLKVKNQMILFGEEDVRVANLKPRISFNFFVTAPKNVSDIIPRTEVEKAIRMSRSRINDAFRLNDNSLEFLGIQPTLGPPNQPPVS
Ki [1],Ki [2],Ki [3],SMILES
> 0.5 µM,> 50 µM,> 50 µM,"CCC(NC(Cc1cccs1)C(=O)O)C(=O)O (stereo not drawn) [AK, 2-(1-Carboxy-2-thiophen-2-yl-ethylamino)-butync acid]"
> 0.5 µM,> 50 µM,10 to 50 µM,"O=C(O)C(Cc1ccccc1)NC(C(=O)O)c1ccccc1 (stereo not drawn) [BO, 2-[(Carboxy-phenyl-methyl)-amino]-3-phenyl-propionic acid]"
> 0.5 µM,> 50 µM,> 50 µM,"C[C@H](N[C@@H](CCc1ccccc1)C(=O)O)C(=O)O [P, 2-(1-Carboxy-ethylamino)-4-phenyl-butync acid]"
> 0.5 µM,> 50 µM,> 50 µM,"CC(C)C[C@H](N[C@@H](CCc1ccccc1)C(=O)O)C(=O)OC(C)(C)C [CZ, 2-(1-Carboxy-3-phenyl-propylamino)-4-methyl-pentanoic acid tert-butyl ester]"
> 0.5 µM,> 50 µM,> 50 µM,"CCCC[C@H](N[C@@H](C(=O)O)c1ccccc1)C(=O)O [BX, 2-[(Carboxy-phenyl-methyl)-amino]-hexanoicacid]"
> 0.5 µM,> 50 µM,> 50 µM,"CC(C)C[C@H](NCCCc1ccccc1)C(=O)O [CY, 4-Methyl-2-(3-phenyl-propylamino)-pentanoicacid]"
> 0.5 µM,> 50 µM,> 50 µM,"O=C(O)[C@H](NC1(C(=O)O)CCCCC1)c1ccccc1 [BY, 1-[(Carboxy-phenyl-methyl)-amino]-cyclohexanecarboxylic acid]"
> 0.5 µM,> 50 µM,10 to 50 µM,"O=C(O)C(CCc1ccccc1)N[C@@H](Cc1ccccc1)C(=O)O (stereo partly drawn) [AJ, 2-(1-Carboxy-2-phenyl-ethylamino)-4-phenyl-butync acid]"
> 0.5 µM,> 50 µM,> 50 µM,"CC(N[C@@H](Cc1c[nH]cn1)C(=O)O)C(=O)O (stereo partly drawn) [N, 2-(1-Carboxy-ethylamino)-3-(1H-imidazol-4-yl)-propionic acid]"
> 0.5 µM,> 50 µM,> 50 µM,"CCCC(NC(Cc1cccs1)C(=O)O)C(=O)O (stereo not drawn) [AI, 2-(1-Carboxy-2-thiophen-2-yl-ethylamino)-pentanoic acid]"
> 0.5 µM,> 50 µM,> 50 µM,"COc1ccc(C#CC[C@H](N[C@@H](CCc2ccccc2)C(=O)O)C(=O)O)cc1 [FR, 2-(1-Carboxy-3-phenyl-propylamino)-5-(4-methoxy-phenyl)-pent-4-ynoic acid]"
> 0.5 µM,> 50 µM,> 50 µM,"CCCCC(N[C@@H](CC(C)C)C(=O)O)C(=O)O (stereo partly drawn) [Q, 2-(1-Carboxy-3-methyl-butylamino)-hexanoic acid]"
> 0.5 µM,> 50 µM,> 50 µM,"CCCC(N[C@@H](Cc1ccccc1)C(=O)O)C(=O)O (stereo partly drawn) [AA, 2-(1-Carboxy-2-phenyl-ethylamino)-pentanoicacid]"
> 0.5 µM,> 50 µM,> 50 µM,"CC(C)CCN[C@@H](Cc1c[nH]cn1)C(=O)O [DY, 3-(1H-Imidazol-4-yl)-2-(3-methyl-butylamino)-propionic acid]"
> 0.5 µM,> 50 µM,> 50 µM,"C#CCC(N[C@@H](C(=O)O)c1ccccc1)C(=O)O (stereo partly drawn) [BN, 2-[(Carboxy-phenyl-methyl)-amino]-pent-4-ylnoic acid]"
> 0.5 µM,> 50 µM,10 to 50 µM,"CC(C)C[C@H](NC(=O)NCc1ccccc1)C(=O)O [DU, 2-(3-Benzyl-ureido)-4-methyl-pentanoic acid]"
> 0.5 µM,> 50 µM,< 10 µM,"CC(C)C[C@H](NC(=O)NCCc1ccccc1)C(=O)O [DV, 4-Methyl-2-(3-phenethyl-ureido)-pentanoic acid]"
> 0.5 µM,> 50 µM,> 50 µM,"CCC(N[C@@H](CCSC)C(=O)O)C(=O)O (stereo partly drawn) [Z, 2-(1-Carboxy-propylamino)-4-methylsulfanyl-butyncacid]"
> 0.5 µM,> 50 µM,> 50 µM,"CC(N[C@H](CCc1ccccc1)C(=O)O)C(=O)O (stereo partly drawn) [AW, 2-(1-Carboxy-ethylamino)-4-phenyl-butync acid]"
> 0.5 µM,> 50 µM,> 50 µM,"CC(C)C[C@H](N[C@H](CCc1ccccc1)C(=O)O)C(=O)OC(C)(C)C [DA, 2-(1-Carboxy-3-phenyl-propylamino)-4-methyl-pentanoic acid tert-butyl ester]"
> 0.5 µM,> 50 µM,> 50 µM,"CC(N[C@@H](Cc1c[nH]c2ccccc12)C(=O)O)C(=O)O (stereo partly drawn) [AG, 2-(1-Carboxy-ethylamino)-3-(1H-indol-3-yl)-propionic acid]"
> 0.5 µM,> 50 µM,> 50 µM,"CCCC(N[C@@H](Cc1c[nH]cn1)C(=O)O)C(=O)O (stereo in doubt) [AF, 2-[1-Carboxy-2-(1H-imidazol-4-yl)-ethylamino]pentanoic acid]"
> 0.5 µM,10 to 50 µM,10 to 50 µM,"O=C(O)C(Cc1ccccc1)N[C@@H](Cc1cnc[nH]1)C(=O)O (stereo partly drawn) [EK, 2-(1-Carboxy-2-phenyl-ethylamino)-3-(3H-imidazol-4-yl)-propionicacid]"
> 0.5 µM,> 50 µM,> 50 µM,"O=C(O)C(CCc1ccccc1)N[C@@H](CC1CCCCC1)C(=O)O (stereo partly drawn) [BG, 2-(1-Carboxy-2-cyclohexyethylamino)-4-phenyl-butync acid]"
> 0.5 µM,> 50 µM,> 50 µM,"CC(C)C[C@H](N[C@@H](CCc1ccccc1)C(=O)O)C(N)=O [DB, 2-(1-Carbamoyl-3-methyl-butylamino)-4-phenyl-butync acid]"
> 0.5 µM,> 50 µM,> 50 µM,"CC(C)CC(N[C@H](CC(=O)O)Cc1ccsc1)C(=O)O (stereo in doubt) [EJ, 2-(1-Carboxymethyl-2-thiophen-3-yl-ethylamino)-4-methyl-pentanoic acid]"
> 0.5 µM,> 50 µM,> 50 µM,"CC(C)CC(N[C@@H](CNc1ccccc1)C(=O)O)C(=O)O (single isomer, unassigned) [FI, 2-(1-Carboxy-2-phenylamino-ethylamino)-4-methyl-pentanoic acid]"
> 0.5 µM,> 50 µM,10 to 50 µM,"CC(C)CCNC(CCc1ccccc1)C(=O)O (stereo not drawn) [DR, 2-(3-Methyl-butylamino)-4-phenyl-butync acid]"
